Molecules are shown by their SMILES. Like-named read-outs stand apart in the source and are kept apart here.

In the experiment the target is T1, 5HT6 human recombinant receptor (Homo sapiens, UniProt P50406).
T1 construct: purchased Receptor Biology; host or cells: HEK-293 cell membranes
The experiment can be described thus: Binding test to 5-HT6 receptors ([3H]-LSD displacement, HEK-293 cell membranes). The settings on record: for inhibition at 1 µM: compound concentration 10^−6 M; for Ki: inhibition constant by non-linear regression (EBDA/LIGAND), [3H]-LSD 2.7 nM; for inhibition at 0.1 µM: read-out: % Inhibition 10^−7 M; for inhibition at 0.01 µM: read-out: % Inhibition 10^−8 M. As to the method:
Binding Test to 5-HT6 Receptors
Membranes of HEK-293 cells expressing the 5HT6 human recombinant receptor were supplied by Receptor Biology. In these membranes the receptor concentration is 2.18 pmol/mg protein and the protein concentration is 9.17 mg/ml. The experimental protocol follows the method of B. L. Roth et al. [B. L. Roth, S. C. Craigo, M. S. Choudhary, A. Uluer, F. J. Monsma, Y. Shen, H. Y. Meltzer, D. R. Sibley: Binding of Typical and Atypical Antipsychotic Agents to 5-Hydroxytryptamine-6 and Hydroxytriptamine-7 Receptors. The Journal of Pharmacology and Experimental Therapeutics, 1994, 268, 1403] with slight modifications. The commercial membrane is diluted (dilution 1:40) with the binding buffer: 50 mM Tris-HCl, 10 mM MgCl2, 0.5 mM EDTA (pH 7.4). The radioligand used is [^3H]-LSD at a concentration of 2.7 nM with a final volume of 200 μl. Incubation is initiated by adding 100 μl of the membrane suspension (≈22.9 μg membrane protein), and continues for 60 minutes at a temperature of 37° C. Incubation ends by fast filtration in a Harvester Brandel Cell through glass fibre filters manufactured by Schleicher & Schuell GF 3362 pre-treated with a 0.5% polyethylenimine solution. The filters are washed three times with three milliliters of Tris-HCl 50 mM pH 7.4 buffer. The filters are transferred to vials and to each vial 5 ml of liquid scintillation cocktail Ecoscint H is added. The vials are allowed to reach equilibrium for several hours before being counted in a Wallac Winspectral 1414 scintillation counter. Non-specific binding is determined in the presence of 100 μM serotonin. The tests are performed in triplicate. The inhibition constants (Ki, nM) are calculated by non-linear regression analysis using the program EBDA/LIGAND [Munson and Rodbard, Analytical Biochemistry, 1980, 107, 220].

Setting [1] is: radioligand [3H]-LSD 2.7 nM, 60 min, 37° C.
The mark [2] stands for this setting: compound concentration 10^−7 M, radioligand [3H]-LSD 2.7 nM, 60 min, 37° C.
[3] abbreviates: compound concentration 10^−8 M, radioligand [3H]-LSD 2.7 nM, 60 min, 37° C.

T1 sequence (P50406 whole entry): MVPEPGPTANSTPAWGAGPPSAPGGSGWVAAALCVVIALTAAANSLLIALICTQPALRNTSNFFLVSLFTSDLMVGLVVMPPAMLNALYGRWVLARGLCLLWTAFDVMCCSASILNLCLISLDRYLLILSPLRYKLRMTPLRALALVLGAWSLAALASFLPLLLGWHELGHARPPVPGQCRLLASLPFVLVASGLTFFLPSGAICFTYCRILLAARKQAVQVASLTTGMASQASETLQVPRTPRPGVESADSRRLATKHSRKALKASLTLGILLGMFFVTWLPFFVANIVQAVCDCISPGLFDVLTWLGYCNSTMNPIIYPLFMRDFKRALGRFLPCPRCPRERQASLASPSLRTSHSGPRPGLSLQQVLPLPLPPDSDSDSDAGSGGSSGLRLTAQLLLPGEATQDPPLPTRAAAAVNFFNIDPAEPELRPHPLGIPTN

Usually inhibition stands for the change of the read-out against control, counted positive when it falls. The Ki is a measure of affinity in units of concentration, obtained from inhibition or displacement. On to `CC1=C(CCN(C)C)c2cc(NS(=O)(=O)c3c(Cl)nc4sccn34)ccc2C1` [Example 19, N-[3-(2-Dimethylaminoethyl)-2-methyl-1H-inden-5-yl]-6-chloroimidazo[2,1-b]thiazole-5-sulfonamide], for which the Ki is 4.8 nM. In addition, the inhibition at 1 µM under setting [1] was found to be 97%.
Turning to `CC1=C(CCN(C)C)c2cc(NS(=O)(=O)c3sc4ccc(Cl)cc4c3C)ccc2C1` [Example 20, N-[3-(2-Dimethylaminoethyl)-2-methyl-1H-inden-5-yl]-5-chloro-3-methylbenzo[b]thiophene-2-sulfonamide], under setting [2], the inhibition at 0.1 µM is 42%. Also, under setting [3], the inhibition at 0.01 µM amounted to 13%.
For `CC1=C(CCN2CCCC2)c2cc(NS(=O)(=O)c3c(Cl)nc4sccn34)ccc2C1` [Example 29, N-[3-(2-Pyrrolidin-1-ylethyl)-2-methyl-1H-inden-5-yl]-6-chloroimidazo[2,1-b]thiazole-5-sulfonamide] the same measures were 82% and 53%.
For `CC1=C(CCN2CCCC2)c2cc(NS(=O)(=O)c3ccc(N)cc3)ccc2C1` [Example 32, 4-Amino-N-[3-(2-pyrrolidin-1-ylethyl)-2-methyl-1H-inden-5-yl]benzene sulfonamide] the same measures were 63% and 26%.
As to `CC1=C(CCN(C)C)c2cc(NS(=O)(=O)c3ccc4ccccc4c3)ccc2/C1=C\c1ccccc1` [Example 33, N-[1(Z)-Benzylidene-3-(2-dimethylaminoethyl)-2-methyl-1H-inden-5-yl]naphthalene-2-sulfonamide], the Ki amounted to 216 nM.
Turning to `CC1=C(CCN(C)C)c2cc(NS(=O)(=O)c3ccc4ccccc4c3)ccc2C1` [Example 34, N-[3-(2-Dimethylaminoethyl)-2-methyl-1H-inden-5-yl]naphthalene-2-sulfonamide], the Ki is 50.6 nM. Further, the inhibition at 1 µM under setting [1] is 100%. For the same molecule, the inhibition at 0.1 µM under setting [2] was 71%. For the same molecule, the inhibition at 0.01 µM under setting [3] is 18%.
On to `CC1=C(CCN2CCCC2)c2cc(NS(=O)(=O)c3ccc4ccccc4c3)ccc2C1` [Example 35, N-[2-Methyl-3-(2-pyrrolidin-1-ylethyl)-1H-inden-5-yl]naphthalene-2-sulfonamide], for which the Ki came to 62.9 nM. The inhibition at 1 µM under setting [1] is 92%.
For `CC1=C(CCN2CCCC2)c2cccc(NS(=O)(=O)c3ccc4ccccc4c3)c2C1` [Example 36, N-[2-Methyl-1-(2-pyrrolidin-1-ylethyl)-3H-inden-4-yl]naphthalene-2-sulfonamide] the same measures were 157 nM and 72%.
`O=S(=O)(Nc1ccc2c(c1)C(CCN1CCCC1)=CC2)c1ccc2ccccc2c1` [Example 37, N-[3-(2-Pyrrolidin-1-ylethyl)-1H-inden-5-yl]naphthalene-2-sulfonamide]: the Ki was 46.3 nM. For the same molecule, under setting [1], the inhibition at 1 µM stood at 92%.
In the case of `CC1=C(CCN2CCCC2)c2cc(NS(=O)(=O)c3sc4ccc(Cl)cc4c3C)ccc2C1` [Example 38, N-[2-Methyl-3-(2-pyrrolidin-1-ylethyl)-1H-inden-5-yl]-5-chloro-3-methylbenzo[b]thiophene-2-sulfonamide], the Ki was 20.2 nM. For the same molecule, the inhibition at 1 µM under setting [1] turned out to be 100%.
As for `CC1=C(CCN(C)C)c2cc(S(=O)(=O)Nc3cccc4ccccc34)ccc2C1` [Example 39, N-(Naphthalene-1-yl)-3-(2-dimethylaminoethyl)-2-methyl-1H-indene-5-sulfonamide], under setting [2], the inhibition at 0.1 µM was 51%. In addition, the inhibition at 0.01 µM under setting [3] came out at 25%.
As to `CC1=C(CCO)c2cc(NS(=O)(=O)c3ccc4ccccc4c3)ccc2C1` [Example 40, N-[3-(2-Hydroxyethyl)-2-methyl-1H-inden-5-yl]naphthalene-2-sulfonamide], under setting [1], the inhibition at 1 µM is 45%. Also, the inhibition at 0.1 µM under setting [2] came to 16%. Further, under setting [3], the inhibition at 0.01 µM amounted to 8%.
Regarding `CN(C)CCC1=CC(C)(C)c2ccc(NS(=O)(=O)c3c(Cl)nc4sccn34)cc21` [Example 41, 6-Chloro-N-{3-[2-(dimethylamino)ethyl]-1,1-dimethyl-1H-inden-5-yl}imidazo[2,1-b] [1,3]thiazole-5-sulfonamide], under setting [2], the inhibition at 0.1 µM worked out at 24.5%. Moreover, under setting [3], the inhibition at 0.01 µM came to 9.4%.
For `Cc1c(S(=O)(=O)Nc2ccc3c(c2)C(CCN(C)C)=CC3(C)C)sc2ccc(Cl)cc12` [Example 42, 5-Chloro-N-{3-[2-(dimethylamino)ethyl]-1,1-dimethyl-1H-inden-5-yl}-3-methylbenzo[b]thiophene-2-sulfonamide] the same measures were 2.3% and -7.5%.
For `CC1=C(CCN(C)C)c2cc(NS(=O)(=O)c3cccc4ccccc34)ccc2C1` [Example 43, N-{3-[2-(Dimethylamino)ethyl]-2-methyl-1H-inden-5-yl}naphthalene-1-sulfonamide] the same measures were 78.4% and 32%.
For `CC1=C(CCN(C)C)c2cc(NS(=O)(=O)c3csc4ccccc34)ccc2C1` [Example 44, N-{3-[2-(Dimethylamino)ethyl]-2-methyl-1H-inden-5-yl}-1-benzothiophene-3-sulfonamide] the same measures were 88.3% and 53%.
In the case of `CC1=C(C2CCN(C)C2)c2cc(NS(=O)(=O)c3c(Cl)nc4sccn34)ccc2C1` (stereo not shown) [Example 45, 6-Chloro-N-[2-methyl-3-(1-methylpyrrolidin-3-yl)-1H-inden-5-yl]imidazo[2,1-b] [1,3]thiazole-5-sulfonamide], the inhibition at 0.1 µM under setting [2] is 5.4%. Under setting [3], the inhibition at 0.01 µM amounted to 7.4%.
For `CC1=C(C2CCCN(C)C2)c2cc(NS(=O)(=O)c3c(Cl)nc4sccn34)ccc2C1` (stereo not shown) [Example 46, 6-Chloro-N-[2-methyl-3-(1-methylpiperidin-3-yl)-1H-inden-5-yl]imidazo[2,1-b] [1,3]thiazole-5-sulfonamide] the same measures were 85.8% and 77.6%.
`CC1=C(CCN(C)C)c2cc(Cl)ccc2C1` [Example 47, 2-(5-Chloro-2-methyl-1H-inden-3-yl)-N,N-dimethylethanamine]: the inhibition at 0.1 µM came to 8.9% and the inhibition at 0.01 µM was 16.2%.

For the origin of these results see patent US8217041B2, “Indene derivatives, their preparation and use as medicaments” (Laboratories del Sr. Esteve, S.A., priority 2005, dated 2012).
